From US8450272B2, “Combinations of somatostatin-analogs with different selectivity for human somatostatin receptor subtypes” (priority 2006, dated 2013)
Numbered stars: 1 amine (or outer) side, 2 acyl side, 3 side chain; on linkers, the order of the positions; unused ones are H or OH. Square brackets hold non-standard residues; d marks the D form. Side chains are listed from the residue outwards. Peptide text beside a SMILES is read from it. * marks the point of attachment. ξ: configuration not given here. Ethylenediamine = C(CN[*:2])N[*:1]; Hyp = O=C(O)[C@@H]1C[C@@H](O)CN1; ξPhg = NC(C(=O)O)c1ccccc1; CO = O=C([*:1])[*:2]; Bn = c1ccc(C*)cc1

Columns and labels:
[1] = Long-term s.c. infusion by osmotic minipumps, plasma glucose concentration; format: in vivo, adult male Lewis rats; settings: 3 and 10 μg/kg/h alone, rats
Method: Effect of long term application of octreotide and pasireotide alone and in combination on plasma glucose concentration in rats. Compounds were continuously infused by osmotic minipumps at 3 and 10 μg/kg/h for the single compounds and at 1.5, 5 and 10 μg/kg/h for the combinations. Plasma glucose levels were determined one day before and 1, 7 and 14 days after minipumps implantation.
In the long-term experiments octreotide and pasireotide and their combination were s.c. infused in rats using osmotic minipumps (Alzet model: 2002). Blood samples were taken by sublingual bleeding on the day before minipump implantation and after 1, 7 and 14 days.

[2] = Short term experiment: acute s.c. injection, blood glucose AUC; format: in vivo, adult male Lewis rats; settings: 10 μg/kg s.c., rats, within 1 hour after injection
Method: Effect of an acute s.c. injection of octreotide and pasireotide in rats (1 and 10 μg/kg) and different combinations thereof on the accumulated glucose levels between 0 and 1 hour after the injection (n=6 animals per group).
In the short term experiment octreotide and pasireotide and their combination were s.c. injected in rats in 1 ml saline. Blood samples were taken by sublingual bleeding the rats 15 min, 30 min, 1 h, 3 h, 6 h and 8 h after the injection and blood glucose was determined using ACCU-Chek Compact (Roche), which was newly calibrated before each measurement. In order to determine the overall effect of the treatment on glucose the area under the curve (AUC) was determined using GraphPad Prizm. 4.0.

[3] = in vivo; cited from earlier work
[4] = Previous experiments: glucose increase after pasireotide injection; format: in vivo; settings: rats
Method: Based on previous experiments in rats it was known that acute injection of pasireotide causes an increase in glucose, which was rapid in onset (within 30 min after injection), reached its peak between 1 and 3 h and returned to baseline values after 6-8 h. […] Therefore only moderate increases in glucose have been observed after repeated or long-term treatment with pasireotide mainly on the first day(s) of treatment. […] In order to investigate the efficacy of both compounds and their combination on a relevant parameter in rats plasma GH and IGF-1 levels as well as body weight were determined in rats within 14 days of continuous infusion with the compounds. […] Due to the known pulsatile release pattern of GH and the low sensitivity of the available GH RIA, levels of IGF-1 and body weight (BW) are more reliable parameters to determine efficacy of a compound on the GH/IGF-1 system. GH and IGF-1 are both growth factors which are responsible for growth of animals and humans and lack of these factors result in growth retardation in animals which are still growing (like in rats). […] Unlike the rapid changes in glucose levels, changes in IGF-1 levels are only observed after 1-2 days of treatment with somatostatin analogues.

SMILES	plasma glucose ([1]; continuous infusion for 14 days)	change of AUC glucose levels vs. control [2]	t1/2 [3]	plasma level of glucose ([1]; continuous infusion, day 1 and 7 of treatment)	onset of increase in glucose after injection ([4]; acute injection)	return of glucose to baseline values ([4]; acute injection)	glucose response on repeated or long term injections ([4]; repeated or long term injections)
C[C@@H](O)[C@@H]1NC(=O)[C@H](CCCCN)NC(=O)[C@@H](Cc2c[nH]c3ccccc23)NC(=O)[C@H](Cc2ccccc2)NC(=O)[C@@H](NC(=O)[C@H](N)Cc2ccccc2)CSSC[C@@H](C(=O)N[C@H](CO)[C@@H](C)O)NC1=O [octreotide]	no effect or caused a small but significant reduction	no effect	–	–	–	–	–
NCCCC[C@@H]1NC(=O)[C@@H](Cc2c[nH]c3ccccc23)NC(=O)C(c2ccccc2)NC(=O)[C@@H]2C[C@@H](OC(=O)NCCN)CN2C(=O)[C@H](Cc2ccccc2)NC(=O)[C@H](Cc2ccc(OCc3ccccc3)cc2)NC1=O (stereo partly drawn) [pasireotide, cyclo[{4-(NH2—C2H4—NH—CO—O—)Pro}-Phg-DTrp-Lys-Tyr(4-Bzl)-Phe]] (cyclo(F[Hyp]([CO-Ethylenediamine])[ξPhg][dW]KY(Bn)))	–	56%	11 h	slightly, but significantly increased	≤ 30 min	6 to 8 h	strong tachyphylaxis
